Test results reported in patent publication US12227500B2, “Substituted pyrrolo[2,3-b]pyridines for suppressing toxic endoplasmic reticulum stress” (THE TRUSTEES OF COLUMBIA UNIVERSITY IN THE CITY OF NEW YORK, priority 2018, dated 2025).

Tests used:
Assay in all cases: Radiolabeled ATP kinase assay, panel of 371 kinases (Table S6)
Type in all cases: biochemical
[1] = target: T1, panel of 371 human kinases (Homo sapiens, UniProt O14965); settings: Aurora A; 0.1 μM; 10 μM ATP; read-out: % Enzyme Activity (relative to DMSO controls)
T1 construct: purchased Reaction Biology Corp
Description: (§1) ; FIG. 38C). […]. Further targeted analyses, such as genetic knock-down or knock-out, may be warranted to parse the role of these additional kinases in our model of neurodegeneration.

[2] = target: T2, panel of 371 human kinases (Homo sapiens, UniProt O96013); settings: PAK4; 0.1 μM; 10 μM ATP; read-out: % Enzyme Activity (relative to DMSO controls)
T2 construct: purchased Reaction Biology Corp
Description: as §1

[3] = target: T3, panel of 371 human kinases (Homo sapiens, UniProt P08922); settings: ROS/ROS1; 0.1 μM; 10 μM ATP; read-out: % Enzyme Activity (relative to DMSO controls)
T3 construct: purchased Reaction Biology Corp
Description: as §1

[4] = target: T4, panel of 371 human kinases (Homo sapiens, UniProt P27448); settings: MARK3; 0.1 μM; 10 μM ATP; read-out: % Enzyme Activity (relative to DMSO controls)
T4 construct: purchased Reaction Biology Corp
Description: as §1

[5] = target: T5, panel of 371 human kinases (Homo sapiens, UniProt P35916); settings: FLT4/VEGFR3; 0.1 μM; 10 μM ATP; read-out: % Enzyme Activity (relative to DMSO controls)
T5 construct: purchased Reaction Biology Corp
Description: as §1

[6] = target: T6, panel of 371 human kinases (Homo sapiens, UniProt P42679); settings: CTK/MATK; 0.1 μM; 10 μM ATP; read-out: % Enzyme Activity (relative to DMSO controls)
T6 construct: purchased Reaction Biology Corp
Description: as §1

[7] = target: T7, panel of 371 human kinases (Homo sapiens, UniProt P43403); settings: ZAP70; 0.1 μM; 10 μM ATP; read-out: % Enzyme Activity (relative to DMSO controls)
T7 construct: purchased Reaction Biology Corp
Description: as §1

[8] = target: T8, panel of 371 human kinases (Homo sapiens, UniProt P45984); settings: JNK2; 0.1 μM; 10 μM ATP; read-out: % Enzyme Activity (relative to DMSO controls)
T8 construct: purchased Reaction Biology Corp
Description: as §1

[9] = target: T9, panel of 371 human kinases (Homo sapiens, UniProt P48729); settings: CK1a1; 0.1 μM; 10 μM ATP; read-out: % Enzyme Activity (relative to DMSO controls)
T9 construct: purchased Reaction Biology Corp
Description: as §1

[10] = target: T10, panel of 371 human kinases (Homo sapiens, UniProt P51617); settings: IRAK1; 0.1 μM; 10 μM ATP; read-out: % Enzyme Activity (relative to DMSO controls)
T10 construct: purchased Reaction Biology Corp
Description: as §1

[11] = target: T11, panel of 371 human kinases (Homo sapiens, UniProt Q04771); settings: ALK2/ACVR1; 0.1 μM; 10 μM ATP; read-out: % Enzyme Activity (relative to DMSO controls)
T11 construct: purchased Reaction Biology Corp
Description: as §1

[12] = target: T12, panel of 371 human kinases (Homo sapiens, UniProt Q06418); settings: TYRO3/SKY; 0.1 μM; 10 μM ATP; read-out: % Enzyme Activity (relative to DMSO controls)
T12 construct: purchased Reaction Biology Corp
Description: as §1

[13] = target: T13, panel of 371 human kinases (Homo sapiens, UniProt Q09013); settings: DMPK; 0.1 μM; 10 μM ATP; read-out: % Enzyme Activity (relative to DMSO controls)
T13 construct: purchased Reaction Biology Corp
Description: as §1

[14] = target: T14, panel of 371 human kinases (Homo sapiens, UniProt Q13043); settings: MST1/STK4; 0.1 μM; 10 μM ATP; read-out: % Enzyme Activity (relative to DMSO controls)
T14 construct: purchased Reaction Biology Corp
Description: as §1

[15] = target: T15, panel of 371 human kinases (Homo sapiens, UniProt Q13882); settings: BRK; 0.1 μM; 10 μM ATP; read-out: % Enzyme Activity (relative to DMSO controls)
T15 construct: purchased Reaction Biology Corp
Description: as §1

[16] = target: T16, panel of 371 human kinases (Homo sapiens, UniProt Q7KZI7); settings: MARK2/PAR-1Ba; 0.1 μM; 10 μM ATP; read-out: % Enzyme Activity (relative to DMSO controls)
T16 construct: purchased Reaction Biology Corp
Description: as §1

[17] = target: T17, panel of 371 human kinases (Homo sapiens, UniProt Q8N568); settings: DCAMKL2; 0.1 μM; 10 μM ATP; read-out: % Enzyme Activity (relative to DMSO controls)
T17 construct: purchased Reaction Biology Corp
Description: as §1

[18] = target: T18, panel of 371 human kinases (Homo sapiens, UniProt Q8NE63); settings: HIPK4; 0.1 μM; 10 μM ATP; read-out: % Enzyme Activity (relative to DMSO controls)
T18 construct: purchased Reaction Biology Corp
Description: as §1

[19] = target: T19, panel of 371 human kinases (Homo sapiens, UniProt Q96PN8); settings: TSSK3/STK22C; 0.1 μM; 10 μM ATP; read-out: % Enzyme Activity (relative to DMSO controls)
T19 construct: purchased Reaction Biology Corp
Description: as §1

[20] = target: T20, panel of 371 human kinases (Homo sapiens, UniProt Q96RG2); settings: PASK; 0.1 μM; 10 μM ATP; read-out: % Enzyme Activity (relative to DMSO controls)
T20 construct: purchased Reaction Biology Corp
Description: as §1

[21] = target: T21, panel of 371 human kinases (Homo sapiens, UniProt Q9HBH9); settings: MNK2; 0.1 μM; 10 μM ATP; read-out: % Enzyme Activity (relative to DMSO controls)
T21 construct: purchased Reaction Biology Corp
Description: as §1

[22] = target: T22, panel of 371 human kinases (Homo sapiens, UniProt Q9NQU5); settings: PAK6; 0.1 μM; 10 μM ATP; read-out: % Enzyme Activity (relative to DMSO controls)
T22 construct: purchased Reaction Biology Corp
Description: as §1

[23] = target: T23, panel of 371 human kinases (Homo sapiens, UniProt Q9NY57); settings: STK32B/YANK2; 0.1 μM; 10 μM ATP; read-out: % Enzyme Activity (relative to DMSO controls)
T23 construct: purchased Reaction Biology Corp
Description: as §1

[24] = target: T24, panel of 371 human kinases (Homo sapiens, UniProt Q9Y3S1); settings: WNK2; 0.1 μM; 10 μM ATP; read-out: % Enzyme Activity (relative to DMSO controls)
T24 construct: purchased Reaction Biology Corp
Description: as §1

T23 sequence (Q9NY57 whole entry): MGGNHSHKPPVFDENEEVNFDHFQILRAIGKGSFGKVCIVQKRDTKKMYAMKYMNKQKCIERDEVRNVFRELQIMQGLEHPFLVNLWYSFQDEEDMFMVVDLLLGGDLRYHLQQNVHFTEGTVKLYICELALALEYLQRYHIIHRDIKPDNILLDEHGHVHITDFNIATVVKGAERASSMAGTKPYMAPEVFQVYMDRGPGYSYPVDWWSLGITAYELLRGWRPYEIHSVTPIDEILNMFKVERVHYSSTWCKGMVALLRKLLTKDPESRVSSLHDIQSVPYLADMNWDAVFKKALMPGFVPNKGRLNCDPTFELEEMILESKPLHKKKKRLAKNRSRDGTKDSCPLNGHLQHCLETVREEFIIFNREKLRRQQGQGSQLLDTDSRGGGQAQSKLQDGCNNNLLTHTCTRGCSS
T10 sequence (P51617 whole entry): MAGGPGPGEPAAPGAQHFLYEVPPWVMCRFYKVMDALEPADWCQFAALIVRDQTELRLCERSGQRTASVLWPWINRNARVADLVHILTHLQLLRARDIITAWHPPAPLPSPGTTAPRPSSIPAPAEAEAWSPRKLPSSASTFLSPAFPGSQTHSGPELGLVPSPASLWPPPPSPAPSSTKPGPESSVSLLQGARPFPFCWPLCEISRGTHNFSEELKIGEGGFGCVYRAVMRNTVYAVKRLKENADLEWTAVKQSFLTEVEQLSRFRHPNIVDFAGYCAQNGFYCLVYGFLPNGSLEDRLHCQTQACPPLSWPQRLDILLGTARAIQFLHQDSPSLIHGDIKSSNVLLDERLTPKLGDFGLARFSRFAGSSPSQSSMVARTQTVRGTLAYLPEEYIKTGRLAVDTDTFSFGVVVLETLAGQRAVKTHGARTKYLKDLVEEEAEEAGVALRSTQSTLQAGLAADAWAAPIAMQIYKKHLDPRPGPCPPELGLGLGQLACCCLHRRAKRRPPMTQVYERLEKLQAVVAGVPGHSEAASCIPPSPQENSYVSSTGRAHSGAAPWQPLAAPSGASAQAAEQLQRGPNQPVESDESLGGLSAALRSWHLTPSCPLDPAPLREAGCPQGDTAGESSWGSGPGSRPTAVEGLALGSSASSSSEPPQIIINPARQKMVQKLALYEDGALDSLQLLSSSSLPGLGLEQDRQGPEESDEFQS
T13 sequence (Q09013 whole entry): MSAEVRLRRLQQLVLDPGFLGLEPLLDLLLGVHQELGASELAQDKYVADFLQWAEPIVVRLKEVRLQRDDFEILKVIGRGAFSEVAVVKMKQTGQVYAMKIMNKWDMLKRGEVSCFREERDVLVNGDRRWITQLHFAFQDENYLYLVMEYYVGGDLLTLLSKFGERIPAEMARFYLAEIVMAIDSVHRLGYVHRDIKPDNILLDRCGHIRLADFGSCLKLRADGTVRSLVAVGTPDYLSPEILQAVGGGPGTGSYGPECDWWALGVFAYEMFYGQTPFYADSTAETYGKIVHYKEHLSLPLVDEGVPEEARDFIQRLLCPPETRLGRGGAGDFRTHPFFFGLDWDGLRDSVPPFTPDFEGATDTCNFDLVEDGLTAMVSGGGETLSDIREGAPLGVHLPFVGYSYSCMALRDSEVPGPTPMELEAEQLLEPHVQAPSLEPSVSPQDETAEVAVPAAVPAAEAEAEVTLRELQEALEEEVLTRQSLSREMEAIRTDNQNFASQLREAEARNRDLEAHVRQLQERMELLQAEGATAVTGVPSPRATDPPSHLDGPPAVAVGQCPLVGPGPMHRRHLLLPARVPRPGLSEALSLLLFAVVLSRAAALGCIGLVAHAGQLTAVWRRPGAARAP
T18 sequence (Q8NE63 whole entry): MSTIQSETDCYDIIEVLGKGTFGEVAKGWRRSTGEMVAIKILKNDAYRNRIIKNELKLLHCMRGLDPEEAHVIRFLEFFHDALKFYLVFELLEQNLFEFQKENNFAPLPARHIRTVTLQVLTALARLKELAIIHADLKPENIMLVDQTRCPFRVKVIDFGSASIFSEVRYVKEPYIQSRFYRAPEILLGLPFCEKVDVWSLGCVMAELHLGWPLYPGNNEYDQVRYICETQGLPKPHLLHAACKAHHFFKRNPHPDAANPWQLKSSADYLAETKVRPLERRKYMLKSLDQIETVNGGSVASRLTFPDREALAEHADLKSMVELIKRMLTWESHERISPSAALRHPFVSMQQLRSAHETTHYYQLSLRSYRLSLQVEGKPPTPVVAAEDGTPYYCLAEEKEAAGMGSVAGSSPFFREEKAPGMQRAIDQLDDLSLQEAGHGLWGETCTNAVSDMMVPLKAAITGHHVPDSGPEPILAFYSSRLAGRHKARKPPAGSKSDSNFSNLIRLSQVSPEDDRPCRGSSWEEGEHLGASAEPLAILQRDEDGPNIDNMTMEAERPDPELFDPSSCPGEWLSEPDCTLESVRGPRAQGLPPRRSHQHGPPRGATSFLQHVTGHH
T8 sequence (P45984 whole entry): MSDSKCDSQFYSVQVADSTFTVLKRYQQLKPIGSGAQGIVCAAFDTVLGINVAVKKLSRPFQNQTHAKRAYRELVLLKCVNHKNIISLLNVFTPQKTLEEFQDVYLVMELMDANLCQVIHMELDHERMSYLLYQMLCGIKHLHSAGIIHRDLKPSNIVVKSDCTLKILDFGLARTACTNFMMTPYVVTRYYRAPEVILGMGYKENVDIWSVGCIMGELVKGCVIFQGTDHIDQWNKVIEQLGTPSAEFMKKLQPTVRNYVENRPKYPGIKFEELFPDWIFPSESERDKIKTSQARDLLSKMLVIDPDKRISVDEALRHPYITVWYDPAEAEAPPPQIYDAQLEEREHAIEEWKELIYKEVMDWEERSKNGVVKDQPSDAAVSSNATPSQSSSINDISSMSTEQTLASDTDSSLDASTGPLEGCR
T11 sequence (Q04771 21-509): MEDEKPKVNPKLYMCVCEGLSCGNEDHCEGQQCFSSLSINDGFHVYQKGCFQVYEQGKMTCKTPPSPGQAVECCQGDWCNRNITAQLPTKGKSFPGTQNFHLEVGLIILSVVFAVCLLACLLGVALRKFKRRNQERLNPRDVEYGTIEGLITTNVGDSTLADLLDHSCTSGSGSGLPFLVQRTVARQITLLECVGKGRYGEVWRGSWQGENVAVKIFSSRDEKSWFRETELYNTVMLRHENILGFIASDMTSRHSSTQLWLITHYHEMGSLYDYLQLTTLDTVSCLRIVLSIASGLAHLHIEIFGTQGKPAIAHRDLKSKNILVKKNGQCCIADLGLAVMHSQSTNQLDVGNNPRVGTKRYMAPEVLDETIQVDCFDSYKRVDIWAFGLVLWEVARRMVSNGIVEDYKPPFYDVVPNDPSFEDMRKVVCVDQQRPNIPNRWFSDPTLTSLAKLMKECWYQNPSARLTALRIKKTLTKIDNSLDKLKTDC
T1 sequence (O14965 whole entry): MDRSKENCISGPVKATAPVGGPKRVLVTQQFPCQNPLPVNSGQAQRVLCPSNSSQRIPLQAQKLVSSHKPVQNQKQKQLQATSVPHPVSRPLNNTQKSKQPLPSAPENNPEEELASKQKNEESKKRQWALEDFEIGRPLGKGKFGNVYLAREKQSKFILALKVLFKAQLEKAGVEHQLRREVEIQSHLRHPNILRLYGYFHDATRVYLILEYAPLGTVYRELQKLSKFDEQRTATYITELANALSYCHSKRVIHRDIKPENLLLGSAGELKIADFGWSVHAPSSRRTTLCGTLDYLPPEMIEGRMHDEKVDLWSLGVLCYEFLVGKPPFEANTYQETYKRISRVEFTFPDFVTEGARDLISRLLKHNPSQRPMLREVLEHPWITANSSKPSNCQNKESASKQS
T20 sequence (Q96RG2 whole entry): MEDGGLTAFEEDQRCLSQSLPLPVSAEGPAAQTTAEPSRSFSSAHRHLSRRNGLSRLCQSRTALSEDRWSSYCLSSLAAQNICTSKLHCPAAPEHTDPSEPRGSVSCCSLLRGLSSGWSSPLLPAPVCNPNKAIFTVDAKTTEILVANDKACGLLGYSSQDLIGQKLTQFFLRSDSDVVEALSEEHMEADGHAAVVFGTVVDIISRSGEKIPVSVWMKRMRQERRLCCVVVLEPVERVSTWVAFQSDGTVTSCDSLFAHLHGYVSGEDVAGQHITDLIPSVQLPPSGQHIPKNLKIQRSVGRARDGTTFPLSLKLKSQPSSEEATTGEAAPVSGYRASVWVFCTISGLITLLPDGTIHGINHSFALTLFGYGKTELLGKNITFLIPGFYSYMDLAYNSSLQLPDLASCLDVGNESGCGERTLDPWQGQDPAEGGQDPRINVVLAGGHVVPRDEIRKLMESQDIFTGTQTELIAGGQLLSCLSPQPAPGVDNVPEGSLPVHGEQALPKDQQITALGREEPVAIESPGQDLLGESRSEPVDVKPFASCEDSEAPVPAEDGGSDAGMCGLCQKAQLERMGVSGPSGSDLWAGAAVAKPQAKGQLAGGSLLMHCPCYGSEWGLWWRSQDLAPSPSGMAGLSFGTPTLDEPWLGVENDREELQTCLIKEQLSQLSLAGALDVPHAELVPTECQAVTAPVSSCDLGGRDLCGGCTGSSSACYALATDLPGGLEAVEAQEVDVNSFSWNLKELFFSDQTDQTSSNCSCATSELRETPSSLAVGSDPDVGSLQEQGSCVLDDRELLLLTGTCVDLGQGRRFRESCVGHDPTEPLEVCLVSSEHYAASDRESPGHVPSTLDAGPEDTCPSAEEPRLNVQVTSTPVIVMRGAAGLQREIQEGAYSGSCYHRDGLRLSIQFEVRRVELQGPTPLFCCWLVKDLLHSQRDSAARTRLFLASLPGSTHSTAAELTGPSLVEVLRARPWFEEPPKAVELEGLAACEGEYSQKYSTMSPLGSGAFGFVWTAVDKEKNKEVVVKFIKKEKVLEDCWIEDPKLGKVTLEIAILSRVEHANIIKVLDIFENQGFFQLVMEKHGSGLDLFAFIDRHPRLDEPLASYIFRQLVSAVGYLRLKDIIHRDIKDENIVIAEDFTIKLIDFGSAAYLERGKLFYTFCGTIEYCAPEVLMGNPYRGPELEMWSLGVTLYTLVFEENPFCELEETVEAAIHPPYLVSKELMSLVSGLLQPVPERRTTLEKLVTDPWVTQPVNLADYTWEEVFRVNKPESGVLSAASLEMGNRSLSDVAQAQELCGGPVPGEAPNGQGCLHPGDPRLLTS

| SMILES | remaining activity at 0.1 µM [1] [%] | remaining activity at 0.1 µM [2] [%] | remaining activity at 0.1 µM [3] [%] | remaining activity at 0.1 µM [4] [%] | remaining activity at 0.1 µM [5] [%] | remaining activity at 0.1 µM [6] [%] | remaining activity at 0.1 µM [7] [%] | remaining activity at 0.1 µM [8] [%] | remaining activity at 0.1 µM [9] [%] | remaining activity at 0.1 µM [10] [%] | remaining activity at 0.1 µM [11] [%] | remaining activity at 0.1 µM [12] [%] | remaining activity at 0.1 µM [13] [%] | remaining activity at 0.1 µM [14] [%] | remaining activity at 0.1 µM [15] [%] | remaining activity at 0.1 µM [16] [%] | remaining activity at 0.1 µM [17] [%] | remaining activity at 0.1 µM [18] [%] | remaining activity at 0.1 µM [19] [%] | remaining activity at 0.1 µM [20] [%] | also measured |
| --- | --- | --- | --- | --- | --- | --- | --- | --- | --- | --- | --- | --- | --- | --- | --- | --- | --- | --- | --- | --- | --- |
| CN1CCN(Cc2ccc(-c3cnc4[nH]cc(-c5ccc6[nH]ccc6c5)c4c3)cc2)CC1 [Compound 1, 3-(1H-Indol-5-yl)-5-(4-((4-methylpiperazin-1-yl)methyl)phenyl)-1H-pyrrolo[2,3-b]pyridine, reference compound] | 95.2 | 88 | 96 | 83.2 | 81.7 | 102 | 103 | 99.4 | 102 | 86.2 | 121 | 86.8 | 96.6 | 80 | 86.4 | 78 | 87.1 | 107 | 146 | 78 | remaining activity at 0.1 µM [21]: 97.6%; remaining activity at 0.1 µM [22]: 94.6%; remaining activity at 0.1 µM [23]: 97%; remaining activity at 0.1 µM [24]: 93% |
| OCCN1CCN(Cc2ccc(-c3cnc4[nH]cc(-c5cccc(Cl)c5)c4c3)cc2)CC1 [Compound 12k, 2-(4-(4-(3-(3-Chlorophenyl)-1H-pyrrolo[2,3-b]pyridin-5-yl)benzyl)piperazin-1-yl)ethan-1-ol] | 104 | 93.8 | 94.2 | 46.6 | 85.8 | 96.5 | 102 | 97 | 91.6 | 73.2 | 126 | 94.3 | 97.7 | 75.9 | 95 | 51.7 | 87.6 | 105 | 129 | 90.1 | remaining activity at 0.1 µM [21]: 65.2%; remaining activity at 0.1 µM [22]: 96.3%; remaining activity at 0.1 µM [23]: 88.5%; remaining activity at 0.1 µM [24]: 94.8% |
